Source: patent publication US20260224544A1, “Intranasal Formulations for Treating Obstructive Sleep Apnea” (Mosanna Therapeutics AG, priority 2023, published 2026)
“Also recorded” adds a separate entry of the source.

Columns and labels:
[1] = Compound 1 drug substance stability (ICH storage conditions); type: physicochemical; conditions: long term conditions 25±2° C./60±5%, data not shown
Description: A stability study for compound 1 batch H (non-micronized, GMP) was initiated as per ICH storage conditions described in Table 36.
Results for 1 month of storage at 25±2° C./60±5% RH, 30±2° C./65±5% RH and at 40±2° C./75±5% RH are available to date.
A stability study for compound 1 batch L and M (micronized to d90<10 μm and d90<35 μm respectively, scheduled GMP sublots of compound 1 batch H) will be initiated as per ICH reference storage conditions described in Table 37 and Table 38.
To date, only limited data are available on compound 1 drug substance both non-micronized and micronized.

[2] = Compound 1 drug substance batch analysis (particle size distribution); type: physicochemical
Description: The following compound 1 batches were manufactured (Table 31).

[3] = test system: male patients with Obstructive Sleep Apnea-Hypopnea Syndrome (OSAHS); assay: Phase 2 clinical trial: change from baseline in Apnea Hypopnea Index (AHI) by overnight polysomnography; type: in vivo, human; conditions: single intranasal dose 18 mg
Description: (§1) This was a single intranasal dose, multi-center, randomized, placebo-controlled, double-blind, 2-way crossover study with two treatment periods in male patients with Obstructive Sleep Apnea-Hypopnea Syndrome (OSAHS).
(§2) After a screening phase of up to 21 days, the patients received single doses of 18 mg of compound 1 administered as 3 actuations of 100 μL of study drug into each nostril (9 mg/nostril) or matching placebo at bedtime in each study period. The single nasal doses were administered in a sitting position. There was a wash-out period of 2 days to 3 weeks between the two study periods. The duration of the study per patient ranged from 13 days to a maximum of 8 weeks.
Efficacy was assessed in a blinded fashion using overnight polysomnographic recordings (PSG) which were centrally read and interpreted. The central readers were blinded with regard to the treatment sequence the patients received and with regard to potential safety findings. Maintenance of Wakefulness Tests (MWT) and Stanford Sleepiness Scores (SSS) were also used for the assessment of Excessive Daytime Sleepiness (EDS), and plasma concentrations of compound 1 were assessed at baseline and approximately 10 hours after study drug administration (data not shown). […]
Patients were analyzed using the treatment they actually received at each period, irrespective of the treatment sequence they were randomized to. […]

[4] = test system: upper airway collapsibility; conditions: anesthetized pigs, administered topically to the upper airway; Wirth et al. 2013; cited from earlier work
[5] = test system: male patients with Obstructive Sleep Apnea-Hypopnea Syndrome (OSAHS); assay: Phase 2 clinical trial: treatment emergent adverse events (TEAE); type: in vivo, human; conditions: single intranasal dose 18 mg, n = 38
Description: as §1, §2
The Safety population was defined as all randomized patients exposed to the study medication, regardless of the amount of treatment administered. Patients were analyzed using the treatment they actually received at each period.

Compound: COc1ccc(CC(=O)NCc2ccccc2-c2ccccc2C(=O)NCCc2cccnc2)cc1 [listing 1 of 2 here]
- time for which stability was demonstrated ([1]; micronized, 2004 lot): up to 12 months

Compound: COc1ccc(CC(=O)NCc2ccccc2-c2ccccc2C(=O)NCCc2cccnc2)cc1 [listing 2 of 2 here]
- time for which stability was demonstrated ([1]; lots manufactured in 2004): up to 36 months

Compound: COc1ccc(CC(=O)NCc2ccccc2-c2ccccc2C(=O)NCCc2cccnc2)cc1 [Cmpd 1 batch E]
- Particle size distribution d10 ([2]; micronized drug substance): d10 0.96 μm
- Particle size distribution d50 ([2]; micronized drug substance): d50 4.14 μm
- Particle size distribution d90 ([2]; micronized drug substance): d90 8.85 μm

Compound: COc1ccc(CC(=O)NCc2ccccc2-c2ccccc2C(=O)NCCc2cccnc2)cc1 [Cmpd 1 batch K]
- Particle size distribution d10 ([2]; micronized drug substance): d10 1.81 μm
- Particle size distribution d50 ([2]; micronized drug substance): d50 12.53 μm
- Particle size distribution d90 ([2]; micronized drug substance): d90 30.01 μm

Compound: COc1ccc(CC(=O)NCc2ccccc2-c2ccccc2C(=O)NCCc2cccnc2)cc1 [Cmpd 1 batch L]
- Particle size distribution d10 ([2]; micronized drug substance): d10 0.80 μm
- Particle size distribution d50 ([2]; micronized drug substance): d50 2.3 μm
- Particle size distribution d90 ([2]; micronized drug substance): d90 5.9 μm

Compound: COc1ccc(CC(=O)NCc2ccccc2-c2ccccc2C(=O)NCCc2cccnc2)cc1 [Compound 1, 2′-{[2-(4-methoxy-phenyl)-acetylamino]-methyl}-biphenyl-2-carboxylic acid (2-pyridin-3-yl-ethyl)-amide]
- AHI (num/hr) LS mean difference, compound 1 versus placebo, change from baseline ([3]; ITT population): −3.78 num/hr
- primary efficacy outcome (reduction of AHI versus placebo) [3]: not statistically significant; also recorded: no significant improvement in obstructive sleep apnea
- inhibition of upper airway collapsibility [4]: dose-dependently inhibit upper airway collapsibility
- D90 of drug substance ([2]; micronized drug substance): approximately 4.9 μm
- D90 of drug substance ([2]; non micronized batch sieved with a 32 μm mesh): approximately 28 μm
- All grade TEAEs: Cough, % [5]: (50.0%)
- All grade TEAEs: Eye Disorders, % [5]: (57.9%)
- All grade TEAEs: Increased tearing, % [5]: (52.6%)
- All grade TEAEs: Nasal discomfort, % [5]: (36.8%)
- All grade TEAEs: Respiratory, % [5]: (97.4%)
- All grade TEAEs: Rhinorrhea, % [5]: (18.4%)
- All grade TEAEs: Sneezing, % [5]: (84.2%)
- All grade TEAEs: Throat irritations, % [5]: (34.2%)
